{
  "source": "paper PMC12304826",
  "about": "“Redirecting the Peptide Cleavage Causes Protease Inactivation” (Angewandte Chemie (International Ed. in English), 2025)",
  "biological_target": "T1, human cathepsin B (Homo sapiens, UniProt P07858)",
  "T1 construct": "purchased Calbiochem, Darmstadt, Germany",
  "assay": "Cathepsin B reactivation experiment",
  "format": "biochemical",
  "settings": "30 min incubation with 0.5 µM, spin-filter removal of inhibitor, 200 min",
  "method": "Figure S2. Reactivation experiment of human cathepsin B after incubation with the carbamate inhibitors 7 and 31. Cathepsin B (38 µg/mL) was incubated under assay conditions for 30 min with • DMSO, • 5 µM of compound 7, or • 0.5 µM of compound 31. After removal of assay buffer, DMSO and excessive inhibitor by spin-filter centrifugation, product formation was followed in the presence of Cbz-Arg-Arg-pNA as substrate for 200 min. A negative control (•) containing only substrate and no enzyme was used to measure spontaneous decay of the substrate.\n(also on this page, place not known: time (min) 0 60 120 180 absorption 0 0.2 0.4 0.6)\n(1 picture or pasted object on this page, not shown here)",
  "data": [
    {"smiles": "O=C(NC(CC1CCCCC1)C(=O)NC(Cc1ccccc1)C(=O)O)Oc1ccc(NC(=O)C(Cc2ccccc2)Cc2ccccc2)c(Cl)c1", "note": "(stereo not shown) [Compound 31]", "values": [
      {"measurement": "reversibility of cathepsin B inhibition", "result": "irreversible"}
    ]}
  ]
}
